Test results: patent US11291666B2, “Uses” (INTRA-CELLULAR THERAPIES, INC., priority 2016, dated 2022)

Legend:
[1] = molecular target: T1, bovine retina PDE6 (Bos taurus, UniProt P11541+P23439); test: PDE selectivity, bovine retina PDE6; format: biochemical
T1 construct: bovine retina PDE6; from tissue; host or cells: bovine retina
T1 sequence (P11541 2-856 limits assumed): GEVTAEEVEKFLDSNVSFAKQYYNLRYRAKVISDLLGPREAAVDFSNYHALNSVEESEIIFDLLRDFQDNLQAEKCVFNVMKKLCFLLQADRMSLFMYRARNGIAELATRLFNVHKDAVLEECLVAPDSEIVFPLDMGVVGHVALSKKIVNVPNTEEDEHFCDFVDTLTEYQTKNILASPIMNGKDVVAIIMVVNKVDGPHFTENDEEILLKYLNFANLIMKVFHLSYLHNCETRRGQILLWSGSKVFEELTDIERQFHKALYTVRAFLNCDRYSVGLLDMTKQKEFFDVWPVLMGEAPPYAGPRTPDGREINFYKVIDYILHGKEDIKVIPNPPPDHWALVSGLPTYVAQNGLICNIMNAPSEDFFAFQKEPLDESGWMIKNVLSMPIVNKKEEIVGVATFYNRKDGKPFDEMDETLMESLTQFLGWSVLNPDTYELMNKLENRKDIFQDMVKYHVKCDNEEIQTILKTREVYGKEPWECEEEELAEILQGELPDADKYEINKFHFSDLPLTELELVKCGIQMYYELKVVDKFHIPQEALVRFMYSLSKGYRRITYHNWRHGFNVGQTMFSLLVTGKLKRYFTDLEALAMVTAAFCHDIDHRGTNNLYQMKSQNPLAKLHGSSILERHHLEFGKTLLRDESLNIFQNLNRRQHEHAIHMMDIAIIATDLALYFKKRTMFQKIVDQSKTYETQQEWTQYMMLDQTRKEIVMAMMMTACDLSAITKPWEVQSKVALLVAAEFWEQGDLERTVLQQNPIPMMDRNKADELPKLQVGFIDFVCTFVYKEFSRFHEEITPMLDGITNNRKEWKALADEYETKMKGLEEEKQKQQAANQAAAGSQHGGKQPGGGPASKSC
T1 sequence (P23439 2-850 limits assumed): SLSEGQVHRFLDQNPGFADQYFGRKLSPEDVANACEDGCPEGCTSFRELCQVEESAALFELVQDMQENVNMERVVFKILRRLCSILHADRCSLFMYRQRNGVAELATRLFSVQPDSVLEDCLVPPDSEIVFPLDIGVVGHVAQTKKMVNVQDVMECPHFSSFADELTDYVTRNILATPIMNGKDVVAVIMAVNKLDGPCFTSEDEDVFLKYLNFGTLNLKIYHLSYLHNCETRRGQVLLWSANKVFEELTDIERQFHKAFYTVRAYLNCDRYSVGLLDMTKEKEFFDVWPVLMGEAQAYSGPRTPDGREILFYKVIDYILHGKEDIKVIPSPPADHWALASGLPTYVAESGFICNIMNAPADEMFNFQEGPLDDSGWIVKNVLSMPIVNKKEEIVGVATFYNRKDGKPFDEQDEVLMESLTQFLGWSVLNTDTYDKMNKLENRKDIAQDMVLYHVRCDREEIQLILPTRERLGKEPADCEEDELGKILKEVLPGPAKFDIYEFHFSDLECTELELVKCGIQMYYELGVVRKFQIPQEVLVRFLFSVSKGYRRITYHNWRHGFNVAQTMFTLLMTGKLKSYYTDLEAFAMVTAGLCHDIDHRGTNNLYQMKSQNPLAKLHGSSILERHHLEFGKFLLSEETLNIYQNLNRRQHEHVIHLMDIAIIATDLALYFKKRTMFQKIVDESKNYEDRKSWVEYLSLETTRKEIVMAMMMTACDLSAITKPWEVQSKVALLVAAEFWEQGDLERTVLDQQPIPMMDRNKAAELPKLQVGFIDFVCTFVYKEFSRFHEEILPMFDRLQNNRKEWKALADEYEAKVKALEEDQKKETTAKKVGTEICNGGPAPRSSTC
Protocol: One unit of enzyme will hydrolyze […] of 3′,5′-cAMP to 5′-AMP per min at pH 7.5 at 30° C. […] 99 μl of diluted enzyme solution is added into each well in a flat bottom 96-well polystyrene plate to which 1 μι of test compound dissolved in 100% DMSO is added.

[2] = test system: BV2 cells; test: RT-qPCR of selected genes in BV2 cells with ITI-214, cyclase activators and PKA/PKG inhibitors; format: cell-based, mouse
Protocol: In a further experiment a group of genes is selected for further analysis by RT-qPCR. For comparison, genes are analyzed which have been implicated in the scientific literature in microglial and astrocyte activation, including genes in the complement pathway.
All sample values are normalized to an average of 3 reference genes and to vehicle control (ΔΔCt). The error bars represent the mean+/−SEM (n=4). From left to right, for each cytokine grouping, the bars indicate samples treated with: LPS, 0.1 μM 214+LPS, 0.4 μM 214+LPS, 1.1 μM 214+LPS, 3.3 μM 214+LPS, 10 μM 214+LPS, for each particular gene shown on the X-axis. Significant changes between LPS and 10 μM ITI-214+LPS (A) and Vehicle and 10 μM ITI-214 (B) are marked on the X-axis gene names and are calculated using a one-way ANOVA. * p<0.05, **p<0.01, ***p<0.001, ****p<0.0001.
In one particular experiment, BV2 cells are treated with 10 μM forskolin (FSK) to activate adenylyl cyclases, 5 μM DEANO to activate soluble guanylyl cyclase, or 100 nM atrial natriuretic peptide (ANP) to activate particulate guanylyl cyclase. […] Upon combining forskolin with ITI-214 some of the effects of ITI-214 inhibition can be increased. […] However, LIF reverts to LPS-level expression when forskolin is added.
Note that gene expression levels upon addition of PKA or PKG inhibitor to 10 μM ITI-214 are on the order of those relative to LPS treatment alone were reduced to levels equivalent to 3.3 μM ITI-214.

[3] = test system: BV2 cells; test: RNAseq analysis of LPS-stimulated BV2 cells, differentially expressed transcripts; format: cell-based, mouse; settings: for genes affected by both Compound 214 and Rolipram / genes significantly affected by this compound but not the other (Compound 214 / Rolipram) / overlap of genes affected by Compound 214 and Rolipram: LPS-stimulated BV2 cells
Protocol: The test compound is added first, the LPS is added one hour later, and the cells and/or media are harvested at five hours from commencement of the experiment.
RNASeq: Flashfreeze BV2cells, isolate RNA, prepare a library using polyA selection, and conduct 1×50 bp single read sequencing on the Illumina HiSeq 2500 in High Output mode (using V4 chemistry). Genes are mapped to reference genome (GRCm38) using CLC Genomics Server. Number of reads per sample average ˜17 million. Differential gene expression analysis is performed using DESeq2software (Bioconductor.org). Differentially expressed genes (p<0.01, Waldtest) are reported as log 2(fold change).

SMILES: CN1C(=O)c2c(nn(Cc3ccc(-c4cccc(F)n4)cc3)c2Nc2ccccc2)N2C1=N[C@@H]1CCC[C@@H]12 [Compound 214]
- IC50 [1]: 0.324 µM
- induction of Cx3cr1 by LPS [2]: significantly reduced
- modulation of transcriptional responses to LPS ([2]; 50 ng/ml LPS, 0.1-10 μM, FIG. 10a): dose dependent
- ITI-214 responsive transcripts (Cx3cr1, Csf2, TNF, Cc14, MAPKAPK2, PtpN6, Ccr1) with concomitant forskolin ([2]; LPS, 10 μM forskolin, FIG. 11a): further down- or up-modulated
- impact of ITI-214 on addition of PKA inhibitor cAMPS-Rp or PKG inhibitor -8-Br-PET-cGMPS ([2]; LPS, inhibitors 100 μM, FIG. 11b): Moderate reduction
- basal expression of Cx3cr1 ([2]; in the absence of LPS): significantly reduced
- LIF expression ([2]; with LPS, FIG. 11a): further increased
- mRNA transcripts decreased in the presence of LPS + compound vs. LPS alone ([3]; BV2 cells, RNAseq): 138 transcripts
- overlap between the Compound 214 and rolipram sets of decreased transcripts ([3]; BV2 cells, RNAseq): 48 transcripts
- overlap between the Compound 214 and rolipram sets of elevated transcripts ([3]; BV2 cells, RNAseq): 45 transcripts
- transcripts elevated in the presence of LPS + compound vs. LPS alone ([3]; BV2 cells, RNAseq): 149 transcripts
- genes affected by both Compound 214 and Rolipram ([3]; further RNASeq analysis): 114 genes
- genes significantly affected by this compound but not the other (Compound 214 / Rolipram) ([3]; further RNASeq analysis): 293 genes
- overlap of genes affected by Compound 214 and Rolipram ([3]; further RNASeq analysis): about 17%
- genes affected by both Compound 214 and Rolipram ([3]; still a further experiment): 683 genes
- genes significantly affected by this compound but not the other (Compound 214 / Rolipram) ([3]; still a further experiment): 1240 genes
- overlap of genes affected by Compound 214 and Rolipram ([3]; still a further experiment): about half
